The record followed here is PubChem BioAssay AID248 (DTP/NCI, 2004).

The test deals with L1210 leukemia ip in BDF1 mice, survival T/C. Put plainly: NCI In Vivo Anticancer Drug Screen. Data for tumor model L1210 Leukemia (intraperitoneal) in B6D2F1 (BDF1) mice. As to conditions: endpoint: mean survival time, higher = longer survival. The method in brief: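 Value reflects the ratio of survival in compound-treated mice to survival in vehicle-treated controls, with both groups carrying the same transplanted tumor.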

Setting [1] is: dose: 100.0 mg/kg/injection, schedule: Q04DX003 (ip), vehicle: Klucel (hydroxypropylcellulose) (HPC).
[2] abbreviates: dose: 200.0 mg/kg/injection, schedule: Q04DX003 (ip), vehicle: Klucel (hydroxypropylcellulose) (HPC).
[3] abbreviates: dose: 400.0 mg/kg/injection, schedule: Q04DX003 (ip), vehicle: Klucel (hydroxypropylcellulose) (HPC).
Setting [4] is: dose: 100.0 mg/kg/injection, schedule: Q04DX002 (ip), vehicle: saline with Tween-80.
Where [5] appears, read: dose: 200.0 mg/kg/injection, schedule: Q04DX002 (ip), vehicle: saline with Tween-80.
[6] abbreviates: dose: 400.0 mg/kg/injection, schedule: Q04DX002 (ip), vehicle: saline with Tween-80.
Setting [7] is: dose: 100.0 mg/kg/injection, schedule: Q04DX003 (ip), vehicle: saline with Tween-80.
The mark [8] stands for this setting: dose: 200.0 mg/kg/injection, schedule: Q04DX003 (ip), vehicle: saline with Tween-80.
The mark [9] stands for this setting: dose: 100.0 mg/kg/injection, schedule: Q01DX001 (ip), vehicle: carboxymethylcellulose (CMC).
Setting [10] is: dose: 200.0 mg/kg/injection, schedule: Q01DX001 (ip), vehicle: carboxymethylcellulose (CMC).
Setting [11] is: dose: 400.0 mg/kg/injection, schedule: Q01DX001 (ip), vehicle: carboxymethylcellulose (CMC).
[12] abbreviates: dose: 200.0 mg/kg/injection, schedule: Q01DX009 (ip), vehicle: saline with Tween-80.

SMILES strings stand for the structures. Inconclusive results and toxic doses are left out.

Turning to `CCNc1ccc(F)cc1[N+](=O)[O-]`, the T/C was 110 % of control (dose: 100.0 mg/kg/injection, schedule: Q01DX009 (ip), vehicle: saline sonified); 103 % of control under setting [1]; 102 % of control (dose: 200.0 mg/kg/injection, schedule: Q01DX009 (ip), vehicle: saline sonified); 104 % of control under setting [2]; 102 % of control (dose: 400.0 mg/kg/injection, schedule: Q01DX009 (ip), vehicle: saline sonified); 97 % of control under setting [3].

On to `CCCCNC(=O)Nc1cc(C)cc(C)n1`, for which the T/C was 100 % of control (dose: 100.0 mg/kg/injection, schedule: Q01DX009 (ip), vehicle: Klucel (hydroxypropylcellulose) (HPC)); 94 % of control under setting [1]; 104 % of control (dose: 200.0 mg/kg/injection, schedule: Q01DX009 (ip), vehicle: Klucel (hydroxypropylcellulose) (HPC)); 102 % of control under setting [2]; 91 % of control (dose: 400.0 mg/kg/injection, schedule: Q01DX009 (ip), vehicle: Klucel (hydroxypropylcellulose) (HPC)); 98 % of control under setting [3].

In the case of `CCCCCCCc1cc(=O)n(-c2ccc([N+](=O)[O-])cc2)n1C`, the T/C under setting [1] is 92 % of control, the T/C under setting [2] was 91 % of control and the T/C under setting [3] was 94 % of control.

Turning to `CC#CCCC(=O)OCCCC`, the T/C is, setting by setting: under setting [4], 101 % of control; under setting [5], 93 % of control; under setting [6], 97 % of control.

For `FCCSc1ncnc2nc[nH]c12`, the T/C (dose: 20.0 mg/kg/injection, schedule: Q04DX003 (ip), vehicle: saline with Tween-80) is 113 % of control; the T/C (dose: 29.5 mg/kg/injection, schedule: Q04DX003 (ip), vehicle: saline with Tween-80) is 116 % of control; the T/C under setting [7] is 159 % of control.

For `CCCCCCCCCCCCCCCCOc1ccc(C(=O)O)cc1NC(=O)CC(C)=O`, the T/C runs as follows: under setting [1], 92 % of control; under setting [2], 95 % of control; under setting [3], 92 % of control.

With `CCOC(=O)C1CC(=O)NC(N)=N1` (centres undefined), the T/C is 95 % of control (dose: 100.0 mg/kg/injection, schedule: Q01DX Z (ip), vehicle: saline) and 100 % of control (dose: 200.0 mg/kg/injection, schedule: Q01DX Z (ip), vehicle: saline).

On to `O=Nc1cc(-c2nccc3ccccc23)[nH]c1-c1ccccc1`, for which the T/C is 94 % of control (dose: 100.0 mg/kg/injection, schedule: Q01DX001 (ip), vehicle: other); 96 % of control (dose: 200.0 mg/kg/injection, schedule: Q01DX001 (ip), vehicle: other); 94 % of control (dose: 400.0 mg/kg/injection, schedule: Q01DX001 (ip), vehicle: other).

Turning to `CC(C)c1ccccc(=O)c1O.CC(C)c1ccccc(=O)c1O.[Cu]`, the T/C under setting [8] is 91 % of control.

On to `CS(=O)(=O)OCC1CCC(COS(C)(=O)=O)CC1` (centres undefined), for which the T/C by setting is: under setting [1], 103 % of control; under setting [2], 100 % of control; under setting [3], 102 % of control.

On to `CCN(CC)CCCOC(=O)C(CCC(C)C)c1ccccc1C` (centres undefined), for which the T/C runs as follows: (dose: 12.5 mg/kg/injection, schedule: Q01DX009 (ip), vehicle: saline) 93 % of control; (dose: 12.5 mg/kg/injection, schedule: Q04DX003 (ip), vehicle: saline) 102 % of control; (dose: 25.0 mg/kg/injection, schedule: Q01DX009 (ip), vehicle: saline) 102 % of control; (dose: 25.0 mg/kg/injection, schedule: Q04DX003 (ip), vehicle: saline) 100 % of control; (dose: 50.0 mg/kg/injection, schedule: Q01DX009 (ip), vehicle: saline) 93 % of control; (dose: 50.0 mg/kg/injection, schedule: Q04DX003 (ip), vehicle: saline) 94 % of control.

In the case of `Cc1nccnc1N/N=C\c1ccc(N(CCCl)CCCl)cc1`, the T/C under setting [9] is 104 % of control, the T/C under setting [10] was 96 % of control and the T/C under setting [11] is 93 % of control.

On to `NC(=O)c1ccc[n+](CCc2c[nH]c3ccccc23)c1`, for which the T/C is, setting by setting: (dose: 75.0 mg/kg/injection, schedule: Q01DX001 (ip), vehicle: saline with Tween-80) 94 % of control; (dose: 150.0 mg/kg/injection, schedule: Q01DX001 (ip), vehicle: saline with Tween-80) 101 % of control; (dose: 300.0 mg/kg/injection, schedule: Q01DX001 (ip), vehicle: saline with Tween-80) 98 % of control.

As to `CC(=O)Nc1ccc(/C=N/NC(=O)c2ccc(C)cc2)cc1`, the T/C (dose: 50.0 mg/kg/injection, schedule: Q01DX009 (ip), vehicle: saline with Tween-80) is 93 % of control and the T/C under setting [12] was 90 % of control.

Turning to `O=c1[nH]c(=O)c2nc3cc(Br)cnc3nc2[nH]1`, the T/C reads like this: (dose: 100.0 mg/kg/injection, schedule: Q04DX003 (ip), vehicle: saline) 95 % of control; (dose: 200.0 mg/kg/injection, schedule: Q04DX003 (ip), vehicle: saline) 102 % of control; (dose: 400.0 mg/kg/injection, schedule: Q04DX003 (ip), vehicle: saline) 103 % of control.

Take `COC(=O)N/N=C/c1ccccc1OC`: the T/C is 104 % of control (dose: 100.0 mg/kg/injection, schedule: Q04DX002 (ip), vehicle: Klucel (hydroxypropylcellulose) (HPC)); 104 % of control (dose: 200.0 mg/kg/injection, schedule: Q04DX002 (ip), vehicle: Klucel (hydroxypropylcellulose) (HPC)); 93 % of control (dose: 400.0 mg/kg/injection, schedule: Q04DX002 (ip), vehicle: Klucel (hydroxypropylcellulose) (HPC)).

As to `O=C1c2ccccc2-c2cc(Br)cc(Br)c21`, the T/C under setting [9] is 93 % of control, the T/C under setting [10] is 98 % of control and the T/C under setting [11] was 98 % of control.

Regarding `C[n+]1c2ccccc2c(-c2c3ccccc3[n+](C)c3ccccc23)c2ccccc21`, the T/C by setting is: (dose: 12.5 mg/kg/injection, schedule: Q01DX001 (ip), vehicle: Klucel (hydroxypropylcellulose) (HPC)) 102 % of control; (dose: 25.0 mg/kg/injection, schedule: Q01DX001 (ip), vehicle: Klucel (hydroxypropylcellulose) (HPC)) 98 % of control; (dose: 50.0 mg/kg/injection, schedule: Q01DX001 (ip), vehicle: Klucel (hydroxypropylcellulose) (HPC)) 98 % of control.

Regarding `OC(C(c1ccccc1)c1ccccn1)(C(F)(F)F)C(F)(F)F` (centres undefined), the T/C (dose: 100.0 mg/kg/injection, schedule: Q01DX009 (ip), vehicle: saline with Tween-80) is 106 % of control; the T/C under setting [7] is 94 % of control; the T/C under setting [12] is 104 % of control; the T/C under setting [8] was 100 % of control; the T/C (dose: 400.0 mg/kg/injection, schedule: Q01DX009 (ip), vehicle: saline with Tween-80) was 97 % of control; the T/C (dose: 400.0 mg/kg/injection, schedule: Q04DX003 (ip), vehicle: saline with Tween-80) is 97 % of control.

On to `Cc1c2c(c(C)c3c1[nH]c1ccccc13)CCN=C2`, for which the T/C runs as follows: (dose: 50.0 mg/kg/injection, schedule: Q01DX001 (ip), vehicle: carboxymethylcellulose (CMC)) 104 % of control; under setting [9], 114 % of control; under setting [10], 104 % of control; under setting [11], 111 % of control.

Turning to `CCCCOc1c(Cl)c(Cl)c(OP(=O)(OCCCC)OCCCC)c(Cl)c1Cl`, the T/C is, setting by setting: (dose: 100.0 mg/kg/injection, schedule: Q04DX002 (ip), vehicle: other) 103 % of control; (dose: 200.0 mg/kg/injection, schedule: Q04DX002 (ip), vehicle: other) 88 % of control; (dose: 400.0 mg/kg/injection, schedule: Q04DX002 (ip), vehicle: other) 103 % of control.

As to `COC(=O)C(O)C(O)C(O)C(O)C(=O)OC` (centres undefined), the T/C (dose: 50.0 mg/kg/injection, schedule: Q04DX002 (ip), vehicle: saline with Tween-80) is 101 % of control; the T/C under setting [4] was 96 % of control; the T/C under setting [5] was 90 % of control; the T/C under setting [6] is 93 % of control.

In the case of `NC(=O)OCCCl`, the T/C is 98 % of control (dose: 100.0 mg/kg/injection, schedule: Q04DX002 (ip), vehicle: saline); 109 % of control (dose: 200.0 mg/kg/injection, schedule: Q04DX002 (ip), vehicle: saline); 102 % of control (dose: 400.0 mg/kg/injection, schedule: Q04DX002 (ip), vehicle: saline).
